Assay results: PMC7083851, “Extended pharmacodynamic responses observed upon PROTAC-mediated degradation of RIPK2” (Communications Biology, 2020)
Values joined by “and” are separate entries in the source; they are usually repeats but may differ in a detail not shown here. Equal entries are not always repeated.

Tests used:
RIPK2 [1] = target: T1, RIPK2 (Homo sapiens, UniProt O43353); assay: RIPK2 fluorescence polarisation binding assay
MDP-induced TNFα release = MDP-induced TNFα release in human whole blood; format: cell-based; conditions: inhibition of MDP-induced TNFα release
Method: (§1) Before treatment with compound or vehicle, THP1 cells, human and rat PBMCs were counted using Vi-Cell cell counter (Invitrogen) and adjusted to a final cell density of […] using complete growth medium. Cells or whole blood were treated with vehicle (0.1% DMSO) or fixed concentrations of compound up to 1 μM in half log unit increments and incubated for the time period indicated in the figure.
Where the assessment of cytokines was performed, L18-MDP was added to the cell culture media (1 μg/ml) or to the rat blood samples (100 ng/ml) and samples were incubated for up to 4 h. […]
Cytokine measurement assay: Cytokine levels were measured in rat plasma or rat PBMCs cell culture supernatants using rat V-Plex TNFα, in human plasma or human PBMCs cell culture supernatants with either TNFα tissue culture or 7-plex kit. Rat serum and tissues samples from the in vivo L18-MDP acute inflammation model were analyzed using the rat TNFα, Il-6 and IL-8 U-Plex kits. […] Levels of cytokines spontaneously released from human colon biopsies cell culture supernatants were measured using Human IL-1 beta/IL-1F2 DuoSet ELISA (Bio-techne), Human IL-6 ELISA (Immunotools) and Human TNF-alpha DuoSet ELISA (Bio-techne). […] The MSD plates were analyzed using the MSD sector imager 6000 plate reader and cytokines concentration (pg/ml) was obtained by using the MSD DISCOVERY WORKBENCH software version 4.0.12.1 […]

Microsomal CLint, rat = format: in vitro ADME; conditions: rat microsomes
Method: (§2) Metabolic stability was performed at Cyprotex (UK). Pooled liver microsomes / cryopreserved pooled hepatocytes were purchased from a commercial supplier (BD Biosciences or Corning/InVitro Technologies).
(§3) The final incubation volume was 500 μL. A minus cofactor control incubation was included for each compound tested where 0.05 M phosphate buffer pH 7.4 was added instead of NADPH (minus NADPH). Each compound was incubated for 0, 5, 15, 30, and 45 min. The control (minus NADPH) was incubated for 45 min only.
(§4) All incubations were terminated by transferring 50 μL of incubate to 100 μL of acetonitrile containing internal standard at the appropriate time points. The termination plates were centrifuged at 2500 rpm for 20–30min at 4 °C to precipitate the protein. Following protein precipitation, samples were analysed using quantitative LC-MS/MS. A plot of ln peak area ratio (compound peak area/internal standard peak area) against time, yielded the gradient of the line.
(§5) Calculated intrinsic clearance values of control compounds were compared with the Cyprotex data library to confirm the appropriate activity of the microsomal/hepatocyte batch and data acceptance.

Microsomal CLint, human = format: in vitro ADME; conditions: human microsomes
Method: as §2, §3, §4, §5

[2] = High-throughput precipitation solubility, chemiluminescent nitrogen-specific detection (CLND); format: physicochemical; conditions: high-throughput precipitation assay
[3] = ChromLogD7.4 high-throughput chromatographic lipophilicity; format: physicochemical
RIPK2 [4] = target: T1, RIPK2; assay: RIPK2 degradation in THP-1 cells, capillary-based immunoassay, 18 h; format: cell-based; set-up: endogenous in cells; host or cells: THP-1 (ATCC TIB-202); conditions: for RIPK2 level relative to DMSO control, mean / RIPK2 level relative to DMSO control, replicate: THP-1, 18 h
Method: The compounds were incubated with THP-1 cells for 18 h after which RIPK2 levels were determined using a capillary-based immunoassay (n = 3). All three PROTACs potently degraded RIPK2 in a concentration dependent manner (Fig. 1). […]. This discrepancy between the in vitro RIPK2 degradation and binding potency provides possible evidence for a catalytic mechanism of action of this compound.
as §1
Simple Western immunoassay: Cell lysates were mixed with 5× concentrated master mix (Protein Simple) and denatured at 95 °C on a heat block for 5 min together with the provided ladder (Protein Simple). Antibodies were diluted in the provided buffer as following: anti-RIPK2 (1:10 or 1:50), anti-cIAP1(1:10), anti-cIAP2 (1:10), anti-XIAP (1:10), mouse anti-β-actin (Abcam - 1:1000), rabbit anti-β-actin (Abcam - 1:50) and anti-vinculin (1:100). All reagents (blocking buffer, primary and secondary antibodies, streptavadin, luminol/peroxide, separation matrix, stacking matrix and water) were added to the Protein Simple plate containing the ladder and lysates and the plate was placed in a Protein Simple Western instrument and the Simple Western default size assay protocol was used. All samples were analyzed using the associated Compass software 3.1.7. The area under the peak values obtained for RIPK2, cIAP1, cIAP2 or XIAP were normalized relative to the control protein values.
In vitro experimental data were analyzed using a 4-parameter logistic equation in GraphPad Prism 5.0.4. to generate an estimate of the half-maximal concentration and maximal degradation, DC50 and Dmax value respectively, for concentration-degradation relationships. Cytokine levels were analyzed in a similar manner to yield IC50 and Imax values. […] Where analysis to a sigmoidal relationship was not possible, the data points are shown as mean ± s.e.m.

T1 sequence (O43353 whole entry): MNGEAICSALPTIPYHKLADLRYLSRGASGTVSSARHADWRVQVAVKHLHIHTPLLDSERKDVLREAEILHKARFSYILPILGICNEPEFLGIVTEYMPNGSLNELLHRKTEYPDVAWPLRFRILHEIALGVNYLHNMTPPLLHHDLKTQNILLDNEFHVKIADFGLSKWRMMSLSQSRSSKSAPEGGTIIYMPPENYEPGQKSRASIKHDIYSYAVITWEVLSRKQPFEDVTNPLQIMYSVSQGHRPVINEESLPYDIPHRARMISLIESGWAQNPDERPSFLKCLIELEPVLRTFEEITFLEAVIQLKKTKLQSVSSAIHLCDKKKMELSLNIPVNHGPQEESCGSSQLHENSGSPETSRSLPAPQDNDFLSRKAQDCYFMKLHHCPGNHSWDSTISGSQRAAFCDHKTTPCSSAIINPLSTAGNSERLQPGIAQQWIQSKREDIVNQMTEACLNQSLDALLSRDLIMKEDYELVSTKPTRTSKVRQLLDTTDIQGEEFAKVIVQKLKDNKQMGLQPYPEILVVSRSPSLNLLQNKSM

## CN[C@@H](C)C(=O)N[C@H](C(=O)N1Cc2cc(OCCOCCOCCOCCOc3cc4nccc(Nc5ccc6scnc6c5)c4cc3S(=O)(=O)C(C)(C)C)ccc2C[C@H]1C(=O)N[C@@H]1CCCc2ccccc21)C(C)(C)C [PROTAC 2]
RIPK2 [1]
  IC50: 10 nM
MDP-induced TNFα release
  hWB MDP pIC50 ± SEM (n): 7.95 ± 0
Microsomal CLint, rat
  microsomal turnover: 11 mL/min/g liver
Microsomal CLint, human
  microsomal turnover: 29 mL/min/g liver
[2]
  CLND solubility, in words: poor solubility
[3]
  ChromLogD7.4: 6.1
RIPK2 [4]; concentration 5.64503e-11 (uM)
  RIPK2 level relative to DMSO control, mean: 117.46%
  RIPK2 level relative to DMSO control, replicate: 117.27% and 131.32% and 103.77%
RIPK2 [4]; concentration 1.69351e-10 (uM)
  RIPK2 level relative to DMSO control, mean: 97.22%
  RIPK2 level relative to DMSO control, replicate: 71.86% and 108.98% and 110.82%
RIPK2 [4]; concentration 5.08053e-10 (uM)
  RIPK2 level relative to DMSO control, mean: 57.20%
  RIPK2 level relative to DMSO control, replicate: 41.71% and 72.70% and 57.18%
RIPK2 [4]; concentration 1.52416e-9 (uM)
  RIPK2 level relative to DMSO control, mean: 26.83%
  RIPK2 level relative to DMSO control, replicate: 18.29% and 36.88% and 25.33%
RIPK2 [4]; concentration 4.57247e-9 (uM)
  RIPK2 level relative to DMSO control, mean: 15.28%
  RIPK2 level relative to DMSO control, replicate: 12.82% and 16.44% and 16.58%
RIPK2 [4]; concentration 1.37174e-8 (uM)
  RIPK2 level relative to DMSO control, mean: 8.47%
  RIPK2 level relative to DMSO control, replicate: 4.51% and 15.08% and 5.82%
RIPK2 [4]; concentration 4.11523e-8 (uM)
  RIPK2 level relative to DMSO control, mean: 4.73%
  RIPK2 level relative to DMSO control, replicate: 6.91% and 6.83% and 0.44%
RIPK2 [4]; concentration 1.23457e-7 (uM)
  RIPK2 level relative to DMSO control, mean: 7.39%
  RIPK2 level relative to DMSO control, replicate: 4.63% and 11.01% and 6.53%
RIPK2 [4]; concentration 3.7037e-7 (uM)
  RIPK2 level relative to DMSO control, mean: 9.35%
  RIPK2 level relative to DMSO control, replicate: 5.28% and 16.09% and 6.68%
RIPK2 [4]; concentration 1.11111e-6 (uM)
  RIPK2 level relative to DMSO control, mean: 11.12%
  RIPK2 level relative to DMSO control, replicate: 12.33% and 13.80% and 7.23%
RIPK2 [4]; concentration 3.33333e-6 (uM)
  RIPK2 level relative to DMSO control, mean: 14.86%
  RIPK2 level relative to DMSO control, replicate: 10.80% and 18.84% and 14.95%
RIPK2 [4]; concentration 1e-5 (uM)
  RIPK2 level relative to DMSO control, mean: 10.81%
  RIPK2 level relative to DMSO control, replicate: 10.44% and 15.52% and 6.46%
RIPK2 [4]; THP-1 cells, 18 h, n = 3
  pDC50 (log half-maximal degradation concentration) of RIPK2: 9.4 ± 0.1
